Test results reported in patent publication US11981693B2, “Organogermanium compound” (ASAI Germanium Research Institute Co., Ltd., priority 2019, dated 2024).
Where two headings read alike, the source gives them in different places.

Columns and labels:
[1] = Dissolution rate: time to visually complete dissolution in purified water; assay type: physicochemical
Protocol: 100 mg of Ge-132 and 100 mg of the THGP octamer were added to 10 mL of purified water, respectively, and the mixtures were stirred at 300 rpm at room temperature, and then the time required to be visually observed as completely dissolved was measured.

[2] = Solubility of the THGP octamer in purified water or methanol, with pH of the solution; assay type: physicochemical
Protocol: To 100 mg of the THGP octamer obtained in (1), the process of adding purified water or methanol in small portions and stirring for 30 minutes at room temperature was repeated, and the volume of the solution was measured when the THGP octamer was visually observed to as completely dissolved. The solubility of the THGP octamer (Solute Amount (g)/Total Mass (g)×100%) was calculated from the measured volume. Furthermore, the pH of the solution was measured when the THGP octamer was completely dissolved.

[3] = cited from earlier work
[4] = conventional THGP polymers, stated as known property

Substance | time required to completely dissolve ([1]; 100 mg in 10 mL purified water, 300 rpm, room temperature) | dissolving time ([1]; water, 20° C., same conditions as Ge-132) | pH of the aqueous solution (in words) ([2]; dissolved in water) | solubility in methanol (Solute Amount (g)/Total Mass (g)×100%) ([2]; methanol, room temperature) | solubility in water (Solute Amount (g)/Total Mass (g)×100%) ([2]; purified water, room temperature, visually complete dissolution) | solubility (mass (g) of solute in 100 g of saturated solution) in water ([2]; water, 20° C.) | pH of the aqueous solution ([2]; when completely dissolved in water) | solubility in organic solvents, such as methanol [3, 4] | solubility in water [3, 4] | solubility (mass (g) of solute in 100 g of saturated solution) in water ([3]; water, 20° C., known comparator value) | time required for the crystals to completely dissolve ([1]; 100 mg in 10 mL purified water (1% aqueous solution), 300 rpm, room temperature) | time required for complete dissolution ([1]; 1% in water, 20° C.)
1,7,9,15-tetra(2′-sodium carboxyethylgermanium)-3,5,11,13-tetra-[sodium propanato(2-)-C^3′,O′]-germanium-2,4,6,8,10,12,14,16,17,18,19,20-dodecaoxa-pentacyclo[8.1^1,5.1^7,11.1^9,13.1^3,15.]icosane [THGP octamer] | approximately 10 seconds | approximately 10 seconds | neutral | 1.4% | 58.8% | 58.8% | around 7.5 |  |  |  |  | 
poly-trans-[(2-carboxyethyl)germasesquioxane] [Ge-132] |  |  |  |  |  |  |  | insoluble | approximately 1% | approximately 1% | ≥ 30 min | ≥ 30 min
